In ChEMBL document CHEMBL5046309, “Discovery of SHR5133, a Highly Potent and Novel HBV Capsid Assembly Modulator” (ACS Med Chem Lett, 2022):
Values after ≈ are worked out from the molar mass of the structure shown. Active and inactive are the calls of the source. The calls are words filed in the database; no cut-off is given here.

Columns and labels:
[1] = target: Voltage-gated inwardly rectifying potassium channel KCNH2 (Homo sapiens, UniProt Q12809); test: Inhibition of human ERG by LC-MS/MS analysis; type: toxicity
[2] = Apparent permeability of the compound across apical to basolateral side in […] measured up to 24 hrs by LC-MS/MS analysis; type: ADME, cell-based
[3] = Plasma protein binding in human by LC-MS/MS analysis; type: ADME, cell-free; details: read-out: PPB (converted)
[4] = AUC(0 to 24 hrs) in nude mouse at 10 mg/kg, po measured up to 24 hrs by LC-MS/MS analysis; type: ADME, organism-based; parameters: route oral, dose 10 mg/kg, time <=24; details: in vivo
[5] = Clearance in Beagle dog at 1 mg/kg, iv measured up to 24 hrs by LC-MS/MS analysis; type: ADME, organism-based, Canis lupus familiaris; details: in vivo
[6] = Cmax in Beagle dog at 0.5 mg/kg, po measured up to 24 hrs by LC-MS/MS analysis; type: ADME, organism-based, Canis lupus familiaris; parameters: route oral, dose 0.5 mg/kg, time <=24; details: in vivo
[7] = Clearance in Sprague-Dawley rat at 1 mg/kg, iv measured up to 24 hrs by LC-MS/MS analysis; type: ADME, organism-based; details: in vivo
[8] = target: Cytochrome P450 2C9 (Homo sapiens, UniProt P11712); test: Inhibition of recombinant human CYP2C9 by LC-MS/MS analysis; type: ADME
[9] = Half life in nude mouse at 10 mg/kg, po measured up to 24 hrs by LC-MS/MS analysis; type: ADME, organism-based; details: in vivo
[10] = test system: Hepatitis B virus; test: Antiviral activity against HBV infected in C57BL/6 mouse assessed as reduction on HBsAg level at 3 to 30 mg/kg,po BID for 28 days by ELISA; type: functional, organism-based; details: dose 3-30 mg/kg, time 28.0 day
[11] = Solubility of the compound in FaSSIF using amorphous form of sample by LC-MS/MS analysis; type: physicochemical
[12] = test system: HepG2 2.2.15; test: Cytotoxicity against human HepG2.2.15 cells assessed as reduction in cell viability incubated for 72 hrs by cell titer-glo assay; type: functional
[13] = Solubility of the compound in phosphate buffer at pH 7.4 using amorphous form of sample by LC-MS/MS analysis; type: physicochemical
[14] = AUC(0 to 24 hrs) in Sprague-Dawley rat at 2 mg/kg, po measured up to 24 hrs by LC-MS/MS analysis; type: ADME, organism-based; parameters: route oral, dose 2 mg/kg, time <=24; details: in vivo
[15] = Plasma protein binding in mouse by LC-MS/MS analysis; type: ADME, cell-free; details: read-out: PPB (converted)
[16] = target: T1, Cytochrome P450 3A4 (Homo sapiens, UniProt P08684); test: Inhibition of recombinant human CYP3A4 using midazolam as substrate by LC-MS/MS analysis; type: ADME
[17] = AUC(0 to 24 hrs) in nude mouse at 100 mg/kg, po measured up to 24 hrs by LC-MS/MS analysis; type: ADME, organism-based; parameters: route oral, dose 100 mg/kg, time <=24; details: in vivo
[18] = Half life in Beagle dog at 0.5 mg/kg, po measured up to 24 hrs by LC-MS/MS analysis; type: ADME, organism-based, Canis lupus familiaris; details: in vivo
[19] = Lipophilicity, logD of compound at pH 7.4 by LC-MS/MS analysis; type: physicochemical; details: buffer
[20] = Plasma protein binding in rat by LC-MS/MS analysis; type: ADME, cell-free; details: read-out: PPB (converted)
[21] = Half life in nude mouse at 2 mg/kg, po measured up to 24 hrs by LC-MS/MS analysis; type: ADME, organism-based; details: in vivo
[22] = Microsomal stability in rat liver microsome assessed as half life measured up to 24 hrs by LC-MS/MS analysis; type: ADME; details: liver microsomes
[23] = AUC(0 to 24 hrs) in nude mouse at 2 mg/kg, po measured up to 24 hrs by LC-MS/MS analysis; type: ADME, organism-based; parameters: route oral, dose 2 mg/kg, time <=24; details: in vivo
[24] = Clearance in nude mouse at 1 mg/kg, iv measured up to 24 hrs by LC-MS/MS analysis; type: ADME, organism-based; details: in vivo
[25] = Cmax in Sprague-Dawley rat at 2 mg/kg, po measured up to 24 hrs by LC-MS/MS analysis; type: ADME, organism-based; parameters: route oral, dose 2 mg/kg, time <=24; details: in vivo
[26] = Cmax in nude mouse at 10 mg/kg, po measured up to 24 hrs by LC-MS/MS analysis; type: ADME, organism-based; parameters: route oral, dose 10 mg/kg, time <=24; details: in vivo
[27] = target: T2, Cytochrome P450 1A2 (Homo sapiens, UniProt P05177); test: Inhibition of recombinant human CYP1A2 by LC-MS/MS analysis; type: ADME
T2 sequence (P05177 whole entry): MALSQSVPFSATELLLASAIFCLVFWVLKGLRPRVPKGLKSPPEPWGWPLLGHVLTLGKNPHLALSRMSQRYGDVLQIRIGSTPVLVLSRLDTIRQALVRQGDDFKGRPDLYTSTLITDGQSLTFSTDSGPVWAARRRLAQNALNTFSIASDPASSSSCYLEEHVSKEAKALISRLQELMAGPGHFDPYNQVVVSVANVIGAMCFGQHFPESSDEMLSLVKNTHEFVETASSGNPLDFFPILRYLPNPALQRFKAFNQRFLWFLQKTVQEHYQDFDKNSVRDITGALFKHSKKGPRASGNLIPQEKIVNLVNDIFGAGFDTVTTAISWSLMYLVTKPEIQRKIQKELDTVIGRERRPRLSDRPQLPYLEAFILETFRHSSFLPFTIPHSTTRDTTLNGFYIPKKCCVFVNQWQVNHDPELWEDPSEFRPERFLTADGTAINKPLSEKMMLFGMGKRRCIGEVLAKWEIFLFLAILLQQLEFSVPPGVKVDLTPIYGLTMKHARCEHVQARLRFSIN

[28] = Half life in nude mouse at 100 mg/kg, po measured up to 24 hrs by LC-MS/MS analysis; type: ADME, organism-based; details: in vivo
[29] = test system: Hepatitis B virus; test: Antiviral activity against HBV infected in C57BL/6 mouse assessed as reduction on HBeAg level at 3 to 30 mg/kg,po BID for 28 days by ELISA; type: functional, organism-based; details: dose 3-30 mg/kg, time 28.0 day
[30] = Microsomal stability in human liver microsome assessed as half life measured up to 24 hrs by LC-MS/MS analysis; type: ADME; details: liver microsomes
[31] = Microsomal stability in dog liver microsome assessed as half life measured up to 24 hrs by LC-MS/MS analysis; type: ADME, Canis lupus familiaris; details: liver microsomes
[32] = test system: Hepatitis B virus; test: Antiviral activity against HBV infected in C57BL/6 mouse assessed as HBV DNA reduction at 3 to 30 mg/kg,po BID for 28 days by qPCR method; type: functional, organism-based; details: dose 3-30 mg/kg, time 28.0 day
[33] = Microsomal stability in mouse liver microsome assessed as half life measured up to 24 hrs by LC-MS/MS analysis; type: ADME; details: liver microsomes
[34] = target: T1, Cytochrome P450 3A4; test: Inhibition of recombinant human CYP3A4 using testosterone as substrate by LC-MS/MS analysis; type: ADME
[35] = Cmax in nude mouse at 100 mg/kg, po measured up to 24 hrs by LC-MS/MS analysis; type: ADME, organism-based; parameters: route oral, dose 100 mg/kg, time <=24; details: in vivo
[36] = Efflux ratio of apparent permeability across basolateral to apical side over apical to basolateral side in […] by LC-MS/MS analysis; type: ADME, cell-based
[37] = Cmax in nude mouse at 2 mg/kg, po measured up to 24 hrs by LC-MS/MS analysis; type: ADME, organism-based; parameters: route oral, dose 2 mg/kg, time <=24; details: in vivo
[38] = target: Cytochrome P450 2D6 (Homo sapiens, UniProt P10635); test: Inhibition of recombinant human CYP2D6 by LC-MS/MS analysis; type: ADME
[39] = Apparent permeability of the compound across basolateral to apical side in […] measured up to 24 hrs by LC-MS/MS analysis; type: ADME, cell-based
[40] = target: Cytochrome P450 2C19 (Homo sapiens, UniProt P33261); test: Inhibition of recombinant human CYP2C19 by LC-MS/MS analysis; type: ADME
[41] = Plasma protein binding in dog by LC-MS/MS analysis; type: ADME, cell-free, Canis lupus familiaris; details: read-out: PPB (converted)
[42] = AUC(0 to 24 hrs) in Beagle dog at 0.5 mg/kg, po measured up to 24 hrs by LC-MS/MS analysis; type: ADME, organism-based, Canis lupus familiaris; parameters: route oral, dose 0.5 mg/kg, time <=24; details: in vivo
[43] = test system: Hepatitis B virus; test: Antiviral activity against HBV infected in C57BL/6 mouse assessed as reduction on HBeAg level at 10 mg/kg,po BID for 28 days by ELISA; type: functional, organism-based; details: time 28.0 day
[44] = test system: Hepatitis B virus; test: Antiviral activity against HBV infected in C57BL/6 mouse assessed as reduction on HBsAg level at 10 mg/kg,po BID for 28 days by ELISA; type: functional, organism-based; details: time 28.0 day
[45] = target: Core antigen (Hepatitis B virus) (UniProt Q03732); test: Modulation of capsid assembly in HBV infected in human HepG2.2.15 cells assessed as maximal inhibition of viral DNA replication preincubated for 3 days followed by replacement with fresh medium containing compound and measured after 3 day by qPCR analysis; type: cell-based; details: filed as modulator, time 6.0 day
[46] = test system: Hepatitis B virus; test: Antiviral activity against HBV infected in C57BL/6 mouse assessed as reduction on HBeAg level at 400 mg/kg,po BID for 28 days by ELISA; type: functional, organism-based; details: time 28.0 day
[47] = test system: Hepatitis B virus; test: Antiviral activity against HBV infected in C57BL/6 mouse assessed as reduction on HBsAg level at 400 mg/kg,po BID for 28 days by ELISA; type: functional, organism-based; details: time 28.0 day

T1 sequence (P08684 whole entry): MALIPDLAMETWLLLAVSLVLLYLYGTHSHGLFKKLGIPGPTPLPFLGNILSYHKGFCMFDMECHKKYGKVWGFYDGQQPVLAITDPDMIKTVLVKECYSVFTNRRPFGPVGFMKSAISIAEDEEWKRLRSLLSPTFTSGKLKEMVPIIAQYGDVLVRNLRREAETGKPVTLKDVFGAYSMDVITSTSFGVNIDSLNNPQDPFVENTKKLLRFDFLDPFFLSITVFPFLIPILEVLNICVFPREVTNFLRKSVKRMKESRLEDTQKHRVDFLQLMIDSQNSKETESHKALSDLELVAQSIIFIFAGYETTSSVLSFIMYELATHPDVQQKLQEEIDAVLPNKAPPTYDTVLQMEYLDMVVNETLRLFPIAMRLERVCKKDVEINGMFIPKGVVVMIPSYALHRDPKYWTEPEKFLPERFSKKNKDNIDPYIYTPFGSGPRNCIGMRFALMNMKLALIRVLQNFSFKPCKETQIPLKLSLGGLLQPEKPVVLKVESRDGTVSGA
Core antigen (Hepatitis B virus), sequence (Q03732 as listed by the source): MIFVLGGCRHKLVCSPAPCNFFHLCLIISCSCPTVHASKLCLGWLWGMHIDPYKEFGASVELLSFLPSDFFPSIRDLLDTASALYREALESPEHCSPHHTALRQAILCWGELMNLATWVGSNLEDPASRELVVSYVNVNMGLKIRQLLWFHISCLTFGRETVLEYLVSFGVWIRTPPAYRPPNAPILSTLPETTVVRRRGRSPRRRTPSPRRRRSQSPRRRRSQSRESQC
Cytochrome P450 2D6, sequence (P10635 whole entry): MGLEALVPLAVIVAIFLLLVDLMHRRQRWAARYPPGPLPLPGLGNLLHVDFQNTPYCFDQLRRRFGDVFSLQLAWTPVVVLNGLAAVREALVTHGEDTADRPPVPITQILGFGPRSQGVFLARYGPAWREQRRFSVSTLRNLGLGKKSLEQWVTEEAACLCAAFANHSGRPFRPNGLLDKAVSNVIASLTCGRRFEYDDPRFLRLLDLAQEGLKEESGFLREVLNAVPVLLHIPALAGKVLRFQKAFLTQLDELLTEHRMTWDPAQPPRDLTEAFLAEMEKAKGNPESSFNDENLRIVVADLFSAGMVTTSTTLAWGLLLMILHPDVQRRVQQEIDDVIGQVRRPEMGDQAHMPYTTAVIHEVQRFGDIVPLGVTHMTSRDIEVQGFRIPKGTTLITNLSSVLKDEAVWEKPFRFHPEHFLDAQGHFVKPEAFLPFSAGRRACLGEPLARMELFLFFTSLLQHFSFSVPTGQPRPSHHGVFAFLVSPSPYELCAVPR
Cytochrome P450 2C9, sequence (P11712 whole entry): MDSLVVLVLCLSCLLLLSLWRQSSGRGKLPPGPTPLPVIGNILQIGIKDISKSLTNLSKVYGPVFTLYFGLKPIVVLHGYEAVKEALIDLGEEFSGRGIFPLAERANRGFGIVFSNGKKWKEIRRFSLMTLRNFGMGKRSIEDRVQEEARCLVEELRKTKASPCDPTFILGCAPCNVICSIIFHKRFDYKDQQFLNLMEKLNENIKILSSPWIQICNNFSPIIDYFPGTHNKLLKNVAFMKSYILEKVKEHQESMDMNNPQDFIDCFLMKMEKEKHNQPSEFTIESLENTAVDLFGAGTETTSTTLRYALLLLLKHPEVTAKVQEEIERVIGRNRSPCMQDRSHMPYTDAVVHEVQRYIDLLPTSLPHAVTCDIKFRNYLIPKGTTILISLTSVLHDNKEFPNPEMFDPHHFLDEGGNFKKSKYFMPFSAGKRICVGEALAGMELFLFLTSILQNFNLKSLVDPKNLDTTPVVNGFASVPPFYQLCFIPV
Voltage-gated inwardly rectifying potassium channel KCNH2, sequence (Q12809 whole entry): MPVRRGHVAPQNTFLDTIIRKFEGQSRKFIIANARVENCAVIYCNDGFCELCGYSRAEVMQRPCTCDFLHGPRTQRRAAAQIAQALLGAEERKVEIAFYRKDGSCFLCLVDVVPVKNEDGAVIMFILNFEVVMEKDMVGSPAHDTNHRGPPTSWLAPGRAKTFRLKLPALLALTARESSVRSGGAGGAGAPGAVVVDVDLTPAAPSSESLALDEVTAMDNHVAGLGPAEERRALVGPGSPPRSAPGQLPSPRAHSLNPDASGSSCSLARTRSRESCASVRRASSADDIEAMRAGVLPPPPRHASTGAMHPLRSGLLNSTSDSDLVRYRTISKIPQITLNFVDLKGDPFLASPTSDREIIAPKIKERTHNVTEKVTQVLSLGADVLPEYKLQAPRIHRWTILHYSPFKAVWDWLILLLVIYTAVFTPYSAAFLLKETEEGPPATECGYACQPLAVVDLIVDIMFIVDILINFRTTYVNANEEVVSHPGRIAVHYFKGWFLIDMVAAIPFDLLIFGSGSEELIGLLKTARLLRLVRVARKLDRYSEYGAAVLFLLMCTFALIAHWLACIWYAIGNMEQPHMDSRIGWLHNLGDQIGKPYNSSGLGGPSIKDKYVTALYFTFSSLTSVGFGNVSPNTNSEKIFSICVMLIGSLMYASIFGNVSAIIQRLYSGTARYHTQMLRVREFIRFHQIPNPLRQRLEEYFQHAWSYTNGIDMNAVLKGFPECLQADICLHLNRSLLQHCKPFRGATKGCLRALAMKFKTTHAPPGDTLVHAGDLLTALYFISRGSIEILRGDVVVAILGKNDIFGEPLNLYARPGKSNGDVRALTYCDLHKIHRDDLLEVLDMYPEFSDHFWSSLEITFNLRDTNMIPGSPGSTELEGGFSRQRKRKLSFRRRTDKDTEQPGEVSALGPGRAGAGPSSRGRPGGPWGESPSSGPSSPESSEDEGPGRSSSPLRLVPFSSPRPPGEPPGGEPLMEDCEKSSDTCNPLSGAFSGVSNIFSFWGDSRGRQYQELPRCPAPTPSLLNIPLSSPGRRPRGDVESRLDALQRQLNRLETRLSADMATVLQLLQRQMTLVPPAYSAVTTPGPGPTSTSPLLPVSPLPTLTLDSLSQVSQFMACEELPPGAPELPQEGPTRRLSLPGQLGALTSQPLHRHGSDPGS
Cytochrome P450 2C19, sequence (P33261 whole entry): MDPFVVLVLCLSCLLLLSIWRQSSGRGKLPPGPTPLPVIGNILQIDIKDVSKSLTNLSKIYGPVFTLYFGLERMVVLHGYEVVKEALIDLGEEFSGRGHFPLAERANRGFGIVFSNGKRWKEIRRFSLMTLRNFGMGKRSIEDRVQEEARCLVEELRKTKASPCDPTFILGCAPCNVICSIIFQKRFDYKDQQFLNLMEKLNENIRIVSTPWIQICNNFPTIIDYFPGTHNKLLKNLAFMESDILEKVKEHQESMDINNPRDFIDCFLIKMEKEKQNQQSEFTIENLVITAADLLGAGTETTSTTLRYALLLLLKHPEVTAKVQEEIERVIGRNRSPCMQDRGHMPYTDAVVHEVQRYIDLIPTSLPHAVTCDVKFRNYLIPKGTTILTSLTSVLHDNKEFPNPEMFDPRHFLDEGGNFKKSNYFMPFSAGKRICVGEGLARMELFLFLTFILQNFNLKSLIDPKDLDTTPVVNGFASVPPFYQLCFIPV

For C[C@H]1Cn2cnc(C(=O)N[C@H](C)C(F)(F)F)c2CN1C(=O)Nc1ccc(F)c(C#N)c1, the IC50 [1] was > 30 µM, the Papp A→B at 24 h [2] was 10.9 ×10⁻⁶ cm/s and the fraction unbound [3] was 0.113. It also gave an AUC [4] of 24.4 µg/mL/h, a clearance [5] of 1.1 mL/min/kg and a Cmax [6] of 559 ng/mL. The clearance [7] was 4.5 mL/min/kg, the IC50 [8] was > 30 µM and the half-life [9] was 3.38 h. The Activity [10] was “inactive”, the solubility [11] was 1640 µM (≈ 718 µg/mL) and the CC50 [12] was > 100 µM. The solubility [13] was 106 µM (≈ 46.5 µg/mL), the AUC [14] was 7.98 µg/mL/h and the fraction unbound [15] was 0.12. The IC50 [16] was > 30 µM, the AUC [17] was 28.9 µg/mL/h and the half-life [18] was 30.8 h. For the same compound, the logD [19] was 2.27, the fraction unbound [20] was 0.244 and the half-life [21] was 5.04 h. The half-life [22] was > 1.12 h, the AUC [23] was 7.16 µg/mL/h and the clearance [24] was 5.3 mL/min/kg. The Cmax [25] was 597 ng/mL, the Cmax [26] was 4600 ng/mL and the IC50 [27] was > 30 µM. The half-life [28] was 4.97 h, the Activity [29] was “inactive” and the half-life [30] was > 2.32 h. For the same compound, the half-life [31] was > 2.32 h, the Activity [32] was “Dose-Dependent Effect” and the half-life [33] was > 2 h. The IC50 [34] was > 30 µM, the Cmax [35] was 22200 ng/mL and the efflux ratio [36] was 4.73. For the same compound, the Cmax [37] was 1120 ng/mL, the IC50 [38] was > 30 µM and the Papp B→A at 24 h [39] was 51.4 ×10⁻⁶ cm/s. The IC50 [40] was > 30 µM, the fraction unbound [41] was 0.23 and the AUC [42] was 9.01 µg/mL/h.

With C[C@H](NS(=O)(=O)c1cc(C(=O)Nc2ccc(F)c(C#N)c2)n(C)c1)C(F)(F)F the Activity [43] was “inactive” and the Activity [44] was “inactive”.

For C[C@H]1Cn2ncc(C(=O)N[C@H](C)C(F)(F)F)c2CN1C(=O)Nc1cc(F)nc(F)c1, the CC50 [12] was > 100 µM.

With C[C@H]1CN(C(=O)Nc2ccc(F)c(F)c2)Cc2c(C(=O)N[C@H](C)C(F)(F)F)ncn21 the Activity [12] was “inactive” and the Emax [45] was 60%.

With C[C@H]1Cn2cnc(C(=O)N[C@H](C)C(F)(F)F)c2CN1C(=O)Nc1ccc(F)c(F)c1 the CC50 [12] was 60.9 µM.

For CC1CN(C(=O)Nc2ccc(F)c(C#N)c2)Cc2c(C(=O)N[C@H](C)C(F)(F)F)ncn21 (single isomer, unassigned), the CC50 [12] was > 100 µM.

With O=C(Nc1cc(F)c(F)c(F)c1)c1ccc(F)c(S(=O)(=O)N2CCC(O)CC2)c1 the Activity [46] was “inactive” and the Activity [47] was “inactive”.
